{"source": "patent US20050049207A1", "about": "(priority 2003, published 2005)", "key": {"[1]": {"system": "leukemia", "settings": "human, in vivo; cited from earlier work"}, "[2]": {"system": "PSA levels", "settings": "men with prostate cancer; cited from earlier work"}, "[3]": {"system": "p53 tumor suppressor gene", "settings": "cited from earlier work"}, "[4]": {"settings": "in vivo; cited from earlier work"}, "[5]": {"system": "prostate, lung and colorectal cancer", "settings": "selenium supplements, humans; cited from earlier work"}, "[6]": {"system": "Candida albicans", "settings": "cited from earlier work"}, "[7]": {"system": "Saccharomyces cerevisiae", "settings": "Saccharomyces cerevisiae (brewer's/baker's yeast); cited from earlier work"}, "[8]": {"system": "prostate cancer", "test": "Case 4: person with prostate cancer on Phase I diet and antifungals", "assay_type": "in vivo, man", "settings": "one patient; Phase I diet 2 months, nystatin 2 months, then UGN, Caprylic acid, GSE; PSA closer to 4.0 at cancer diagnosis", "description": "4. A person was diagnosed as having prostrate cancer. UTSW study for BPH ×5-6 yrs. Biopsy prior and post program. Normal PSA! At post-study diagnosis, cancer was found: October 2001. They moved to OKC and started watching Doug's show.\nPast history includes heavy use of antibiotics, recurrently for allergies, sinusitis.\nWent to MD Anderson—found cancer in different place of the prostate, but Cancer was confirmed nonetheless. Gleason stage 7.\nStarted on Phase I for 2 months (had severe die-off ×4 days—including fever), nystatin thereafter ×2 months. Cont'd diet for 4 months and stays on a variant of the diet. On UGN, Caprylic acid, GSE now ×3 months. Saw John Hogan, D.O. (OKC). Past 2 yrs: PSA now is 1.1. Was closer to 4.0 at the time of cancer diagnosis.\nF/U Ultrasound: cannot find any tumors. Whole body scans have been negative."}, "[9]": {"system": "primary human urothelial cells", "settings": "cited from earlier work"}}, "data": [{"compound": "OC(Cn1cncn1)(Cn1cncn1)c1ccc(F)cc1F", "note": "[fluconazole]", "values": [{"measurement": "effect on (secondary) fungal infections", "setting": "[1]", "result": "cured their (secondary) fungal infections"}, {"measurement": "effect on cancer (leukemia)", "setting": "[1]", "result": "successfully treated their cancer"}]}, {"compound": "CC(=O)N1CCN(c2ccc(OCC3COC(Cn4ccnc4)(c4ccc(Cl)cc4Cl)O3)cc2)CC1", "note": "(stereo not shown) [ketoconazole]", "values": [{"measurement": "effect on PSA levels", "setting": "[2]", "result": "lowered PSA levels"}]}, {"compound": "aflatoxin B1", "values": [{"measurement": "mutation of p53 tumor suppressor gene", "setting": "[3]", "result": "induces the transversion of G→T in codon 249"}, {"measurement": "liver carcinoma after exposure", "setting": "[4]", "result": "develop liver carcinoma"}]}, {"compound": "[Se]", "note": "[Selenium]", "values": [{"measurement": "lower risk of developing cancer", "setting": "[5]", "result": 37, "unit": "%"}, {"measurement": "lower risk of dying from the cancer", "setting": "[5]", "result": 50, "unit": "%"}]}, {"compound": "CC/C(=C(\\c1ccccc1)c1ccc(OCCN(C)C)cc1)c1ccccc1", "note": "[Tamoxifen]", "values": [{"measurement": "antifungal action", "setting": "[6]", "result": "marked antifungal action"}, {"measurement": "antifungal action", "setting": "[7]", "result": "marked antifungal action"}]}, {"compound": "C[C@@H]1[C@H](O)[C@@H](C)/C=C/C=C/C=C/C=C/C=C/C=C/C=C/[C@H](O[C@@H]2O[C@H](C)[C@@H](O)[C@H](N)[C@@H]2O)C[C@@H]2O[C@](O)(C[C@@H](O)C[C@@H](O)[C@H](O)CC[C@@H](O)C[C@@H](O)CC(=O)O[C@H]1C)C[C@H](O)[C@H]2C(=O)O", "note": "[amphotericin B]", "values": [{"measurement": "effect on (secondary) fungal infections", "setting": "[1]", "result": "cured their (secondary) fungal infections"}, {"measurement": "effect on cancer (leukemia)", "setting": "[1]", "result": "successfully treated their cancer"}]}, {"compound": "C[C@@H]1[C@H](O)[C@@H](C)/C=C/C=C/CC/C=C/C=C/C=C/C=C/C(O[C@H]2O[C@H](C)[C@@H](O)[C@H](N)[C@@H]2O)CC2O[C@](O)(CC(O)C(O)CCC(O)CC(O)CC(O)CC(=O)O[C@H]1C)CC(O)C2C(=O)O", "note": "(stereo partly shown) [nystatin]", "values": [{"measurement": "PSA", "setting": "[8]", "result": 1.1}]}, {"compound": "C[C@@H]1Cc2c(Cl)cc(C(=O)N[C@@H](Cc3ccccc3)C(=O)O)c(O)c2C(=O)O1", "note": "[ochratoxin A]", "values": [{"measurement": "unscheduled DNA synthesis", "setting": "[9]", "result": "Induction of unscheduled DNA synthesis"}]}]}
